Experimental data reported in patent publication US9084766B2, “Compounds and compositions for targeting cancer stem cells” (Boston Biomedical, Inc., priority 2010, dated 2015).
Values joined by “and” are separate entries in the source; they are usually repeats but may differ in a detail not shown here. Equal values may be shown once. “Also recorded” adds a separate entry of the source.

How the values were obtained:
[1] = system: advanced solid tumors; assay: Phase I clinical trial: tumor response (RECIST 1.1) and progression free survival; assay type: in vivo, human
Description: As of Feb. 7, 2011, 42 cancer patients with various advanced solid tumors who have failed chemotherapies were enrolled in the study.
Of the 42 patients dosed, 24 were evaluable for tumor response as of Feb. 7, 2011; 16 (16/24 evaluable patients) achieved stable disease (8 to 75+ weeks).

[2] = system: DU145; assay: IC50 versus treatment time, DU145; assay type: cell-based; settings: DU145 cancer cells
Experimental: The studies described herein discovered counter-intuitively that cancer cells and cancer stem cells requires much shorter exposure than normal cells to be killed by Compound 1. Normal cells can tolerate up to 24 hours of exposure to Compound 1. Furthermore, the studies here discovered that normal cells can recover after a short period of no-drug exposure, while cancer cells cannot recover once they are exposed to a certain concentration of the Compound 1 for at least 2 hours. Based on these studies, a special pharmacokinetic exposure [termed selective pharmacokinetic profile (SPP), or preferred pharmacokinetic profile (PPP), which is used interchangeably in this publication] was designed for Compound 1 using the data shown below in Table 14 for achieving selective antitumor activity in patients (FIG. 24).

[3] = previous studies; cited from earlier work
[4] = Phase I clinical trial: safety and adverse events
[5] = patient 0001, total daily dose 20 mg qd, Colon adenocarcinoma
[6] = patient 0013, total daily dose 400 mg bid, Gastric adenocarcinoma
[7] = patient 0014, total daily dose 400 mg bid, Ovarian cancer
[8] = patient 0015, total daily dose 400 mg bid, Colon adenocarcinoma
[9] = patient 0020, total daily dose 600 mg bid, Breast Cancer
[10] = Phase I patients, 20-2000 mg/day oral
[11] = Phase I, dose escalated from 20 mg to 2000 mg/day

## CC(=O)c1cc2c(o1)C(=O)c1ccccc1C2=O [Compound 1, 2-acetyl-4H,9H-naphtho[2,3-b]furan-4,9-dione]
[1]; RECIST 1.1
  patients showing prolonged SD (>12 weeks): 12 patients
[1]; as of Feb. 7, 2011
  evaluable patients with SD/MR by RECIST: 16/24 and 16 out of 24
[1]; blood drug concentration above 1 uM, diverse cancers (FIG. 23)
  progression free survival: increase in progression free survival
[1]; of patients dosed
  patients in whom new metastatic lesions were prevented: 83%
[1]; out of 24 evaluable patients with advanced refractory cancers
  patients showing no metastatic tumors: over 80%
[1]; patient 0001, 20 mg daily (FIG. 19)
  response of colon cancer metastatic lesion to kidney: complete regression; also recorded: signs of potent antitumor activity
[1]; [5]
  New Lesions: 1
  regression: (regression 27.6%)
[1]; patient 0002, total daily dose 40 mg qd, Gastric adenocarcinoma
  New Lesions: 3
[1]; patient 0003, total daily dose 80 mg qd, Head and Neck carcinoma
  New Lesions: 0
[1]; patient 0004, total daily dose 80 mg bid, Colon adenocarcinoma
  New Lesions: 0
[1]; patient 0006, total daily dose 160 mg bid, Lung adenocarcinoma
  New Lesions: 0
[1]; patient 0008, total daily dose 320 mg bid, Colon adenocarcinoma
  New Lesions: 2
[1]; patient 0010, total daily dose 320 mg bid, Colon adenocarcinoma
  New Lesions: 0
[1]; patient 0011, total daily dose 320 mg bid, Angiosarcoma
  New Lesions: 0
[1]; patient 0012, total daily dose 320 mg bid, Prostate cancer
  New Lesions: 0
[1]; [6]
  Best Response, remark: (signs of regression)
  New Lesions: 0
[1]; [7]
  Best Response, remark: (CA 125 normalization)
  New Lesions: 0
[1]; [8]
  CEA change (Best Response, remark): (CEA? >30-50%)
  New Lesions: 0
[1]; patient 0016, total daily dose 600 mg bid, Pancreatic adenocarcinoma
  New Lesions: 0
[1]; [9]
  Best Response, remark: (hollow tumor)
  New Lesions: 0
[1]; patient 0021, total daily dose 800 mg bid, Chondrosarcoma
  New Lesions: 0
[1]; patient 0022, total daily dose 800 mg bid, Prostate cancer
  New Lesions: 0
[1]; patient 0023, total daily dose 800 mg bid, Adenocorticoid
  New Lesions: 0
[1]; patient 0024, total daily dose 1000 mg bid, Rectal cancer
  New Lesions: 0
[1]; patient 0027, total daily dose 1400 mg bid, Colon adenocarcinoma
  New Lesions: 2
[1]; patient 0032, total daily dose 200 mg tid, Colon adenocarcinoma
  New Lesions: 0
[1]; patient 0037, total daily dose 500 mg tid, Colon adenocarcinoma
  New Lesions: 0
[1]; patients with exposure above 1.6 uM for at least 4 hours
  progression free survival: improvement in progression free survival
[2]; treatment time 12-24 h
  IC50: < 200 nM
[2]; Homo sapiens, DU-145, treatment time 4-12 h
  IC50: < 200 nM
[3]
  antitumor activity in animal model: no antitumor activity was observed
[4]; 20 mg QD
  tolerability in humans: good tolerability
[4]; 500 mg TID
  tolerability in humans: good tolerability
[4]; [10]
  Anorexia, Any Grade, # of Events: 4
  Anorexia, Any Grade, % of Total: 4.9%
  Anorexia, Grade 1, # of Events: 3
  Anorexia, Grade 1, % of Total: 3.7%
  Anorexia, Grade 2, # of Events: 1
  Anorexia, Grade 2, % of Total: 1.2%
  Anorexia, Grade 3, # of Events: 0
  Anorexia, Grade 3, % of Total: 0.0%
  Diarrhea, Any Grade, # of Events: 23
  Diarrhea, Any Grade, % of Total: 28.4%
  Diarrhea, Grade 1, # of Events: 20
  Diarrhea, Grade 1, % of Total: 24.7%
  Diarrhea, Grade 2, # of Events: 2
  Diarrhea, Grade 2, % of Total: 2.5%
  Diarrhea, Grade 3, # of Events: 2
  Diarrhea, Grade 3, % of Total: 2.5%
  Dysgusia, Any Grade, # of Events: 3
  Dysgusia, Any Grade, % of Total: 3.7%
  Dysgusia, Grade 1, # of Events: 3
  Dysgusia, Grade 1, % of Total: 3.7%
  Dysgusia, Grade 2, # of Events: 0
  Dysgusia, Grade 2, % of Total: 0.0%
  Dysgusia, Grade 3, # of Events: 0
  Dysgusia, Grade 3, % of Total: 0.0%
  Fatigue, Any Grade, # of Events: 4
  Fatigue, Any Grade, % of Total: 4.9%
  Fatigue, Grade 1, # of Events: 1
  Fatigue, Grade 1, % of Total: 1.2%
  Fatigue, Grade 2, # of Events: 2
  Fatigue, Grade 2, % of Total: 2.5%
  Fatigue, Grade 3, # of Events: 1
  Fatigue, Grade 3, % of Total: 1.2%
  Fever, Any Grade, # of Events: 2
  Fever, Any Grade, % of Total: 2.5%
  Fever, Grade 1, # of Events: 1
  Fever, Grade 1, % of Total: 1.2%
  Fever, Grade 2, # of Events: 1
  Fever, Grade 2, % of Total: 1.2%
  Fever, Grade 3, # of Events: 0
  Fever, Grade 3, % of Total: 0.0%
  Loose stools, Any Grade, # of Events: 2
  Loose stools, Any Grade, % of Total: 2.5%
  Loose stools, Grade 1, # of Events: 2
  Loose stools, Grade 1, % of Total: 2.5%
  Loose stools, Grade 2, # of Events: 0
  Loose stools, Grade 2, % of Total: 0.0%
  Loose stools, Grade 3, # of Events: 0
  Loose stools, Grade 3, % of Total: 0.0%
  Nausea, Any Grade, # of Events: 10
  Nausea, Any Grade, % of Total: 12.3%
  Nausea, Grade 1, # of Events: 8
  Nausea, Grade 1, % of Total: 9.9%
  Nausea, Grade 2, # of Events: 2
  Nausea, Grade 2, % of Total: 2.5%
  Nausea, Grade 3, # of Events: 0
  Nausea, Grade 3, % of Total: 0.0%
  Skin Rash, Any Grade, # of Events: 2
  Skin Rash, Any Grade, % of Total: 2.5%
  Skin Rash, Grade 1, # of Events: 2
  Skin Rash, Grade 1, % of Total: 2.5%
  Skin Rash, Grade 2, # of Events: 0
  Skin Rash, Grade 2, % of Total: 0.0%
  Skin Rash, Grade 3, # of Events: 0
  Skin Rash, Grade 3, % of Total: 0.0%
  Urine Color Change, Any Grade, # of Events: 2
  Urine Color Change, Any Grade, % of Total: 2.5%
  Urine Color Change, Grade 1, # of Events: 2
  Urine Color Change, Grade 1, % of Total: 2.5%
  Urine Color Change, Grade 2, # of Events: 0
  Urine Color Change, Grade 2, % of Total: 0.0%
  Urine Color Change, Grade 3, # of Events: 0
  Urine Color Change, Grade 3, % of Total: 0.0%
  Vomiting, Any Grade, # of Events: 14
  Vomiting, Any Grade, % of Total: 17.3%
  Vomiting, Grade 1, # of Events: 13
  Vomiting, Grade 1, % of Total: 16.0%
  Vomiting, Grade 2, # of Events: 1
  Vomiting, Grade 2, % of Total: 1.2%
  Vomiting, Grade 3, # of Events: 0
  Vomiting, Grade 3, % of Total: 0.0%
  abdominal cramps, Any Grade, # of Events: 6
  abdominal cramps, Any Grade, % of Total: 7.4%
  abdominal cramps, Grade 1, # of Events: 5
  abdominal cramps, Grade 1, % of Total: 6.2%
  abdominal cramps, Grade 2, # of Events: 1
  abdominal cramps, Grade 2, % of Total: 1.2%
  abdominal cramps, Grade 3, # of Events: 0
  abdominal cramps, Grade 3, % of Total: 0.0%
  decreased appetite, Any Grade, # of Events: 2
  decreased appetite, Any Grade, % of Total: 2.5%
  decreased appetite, Grade 1, # of Events: 1
  decreased appetite, Grade 1, % of Total: 1.2%
  decreased appetite, Grade 2, # of Events: 1
  decreased appetite, Grade 2, % of Total: 1.2%
  decreased appetite, Grade 3, # of Events: 0
  decreased appetite, Grade 3, % of Total: 0.0%
  dizzyness, Any Grade, # of Events: 2
  dizzyness, Any Grade, % of Total: 2.5%
  dizzyness, Grade 1, # of Events: 2
  dizzyness, Grade 1, % of Total: 2.5%
  dizzyness, Grade 2, # of Events: 0
  dizzyness, Grade 2, % of Total: 0.0%
  dizzyness, Grade 3, # of Events: 0
  dizzyness, Grade 3, % of Total: 0.0%
  weakness, Any Grade, # of Events: 5
  weakness, Any Grade, % of Total: 6.2%
  weakness, Grade 1, # of Events: 2
  weakness, Grade 1, % of Total: 2.5%
  weakness, Grade 2, # of Events: 3
  weakness, Grade 2, % of Total: 3.7%
  weakness, Grade 3, # of Events: 0
  weakness, Grade 3, % of Total: 0.0%
[4]; Phase I, 20 mg to 2000 mg/day
  tolerability of dose escalation in patients: without drug-induced adverse effects; also recorded: well tolerated
[4]; [11]
  dose-limiting toxicity: No dose-limiting toxicity was observed; also recorded: No dose limiting toxicity was observed
  maximum tolerated dose (MTD): not reached; also recorded: neither MTD nor RP2D has been reached
